Laboratory results published in ChEMBL document CHEMBL1201862, “PubChem BioAssay data set” (2004).
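Where inhibition never reached the appropriate level, the endpoint shown equals the highest concentration tested. Otherwise, values were interpolated linearly from a five-concentration, 48-hour dose response in 96-well plates. At the GI50, growth is halved.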 The source made the active and inactive calls. Rule as the data show it: active = GI50 up to about 1.1 µM and inactive = higher.

Key:
Experiment in all cases: inhibition of tumour cell growth, NCI panel, 48 h
[1] = system: HCT-15
[2] = system: NCI-H226
[3] = system: ACHN
[4] = system: HOP-92
[5] = system: MDA-MB-231
[6] = system: NCI-H23
[7] = system: MDA-MB-435
[8] = system: IGROV-1
[9] = system: SF-268
[10] = system: Hs-578T
[11] = system: PC-3
[12] = system: DU-145
[13] = system: CAKI-1
[14] = system: HT-29
[15] = system: A549
[16] = system: HCT-116
[17] = system: UACC-62
[18] = system: RXF 393

SMILES | GI50 [1] | GI50 [2] | GI50 [3] | GI50 [4] | GI50 [5] | GI50 [6] | GI50 [7] | GI50 [8] | GI50 [9] | GI50 [10] | GI50 [11] | GI50 [12] | GI50 [13] | GI50 [14] | GI50 [15] | GI50 [16] | GI50 [17] | GI50 [18]
COc1ccc2c(c1)c1c(n2CCN(C)C)-c2cccc(OC)c2CC1 | 15.3 µM | 4.49 µM (inactive) | 17.9 µM (inactive) | 17.7 µM (inactive) | 13.7 µM (inactive) | 18.8 µM (inactive) | 12 µM (inactive) | 18.5 µM (inactive) | 17.9 µM (inactive) | 16.3 µM (inactive) | 11.6 µM (inactive) | 17.7 µM (inactive) | 13.1 µM (inactive) | 3.3 µM (inactive) | 12.3 µM (inactive) | 13.3 µM (inactive) | 15.2 µM (inactive) | 
CN1C(=O)C(CC=O)(C(C)(C)C)c2ccccc21 (centres undefined) | 90.6 µM |  | 47.2 µM (inactive) | 69 µM (inactive) | > 100 µM (inactive) | > 100 µM (inactive) | 30.8 µM (inactive) |  | > 100 µM (inactive) | 56.6 µM (inactive) | > 100 µM (inactive) | 56.4 µM (inactive) | 54.7 µM (inactive) |  | > 100 µM (inactive) | 76.4 µM (inactive) | 93.5 µM (inactive) | > 100 µM (inactive)
CC(C)(C)c1cc2c(c(C(C)(C)C)c1O)CC(=O)O2 | 45.9 µM | 30.8 µM (inactive) | 22.8 µM (inactive) | < 0.01 µM (active) | 24.5 µM (inactive) | 19.8 µM (inactive) | 27 µM (inactive) | 40.1 µM (inactive) | 44.4 µM (inactive) | 26.4 µM (inactive) | 27.2 µM (inactive) | 47.5 µM (inactive) |  | 28.3 µM (inactive) | 31.2 µM (inactive) | 30.1 µM (inactive) | 23.2 µM (inactive) | 22.1 µM (inactive)
c1ccc(C2SCC3=Nc4ccccc4CN32)cc1 (centres undefined) | 51.4 µM |  |  | 50.8 µM (inactive) | > 100 µM (inactive) | 16.6 µM (inactive) | 29.7 µM (inactive) |  | 78.5 µM (inactive) | 73.8 µM (inactive) | 25.9 µM (inactive) | 24.9 µM (inactive) | > 100 µM (inactive) | 17.8 µM (inactive) | 53.8 µM (inactive) | 14.8 µM (inactive) | 60.1 µM (inactive) | 10.8 µM (inactive)
N#Cc1cc(Sc2ccc(N)c(C#N)c2)ccc1N | 9.51 µM | 19.6 µM (inactive) | 31.2 µM (inactive) | 21.7 µM (inactive) | 40.7 µM (inactive) |  | 2.55 µM (inactive) | 25.1 µM (inactive) | 18 µM (inactive) | 12.6 µM (inactive) | 22.8 µM (inactive) | 24.9 µM (inactive) |  | 13.6 µM (inactive) | 29.9 µM (inactive) | 12.1 µM (inactive) | 14.8 µM (inactive) | 29.4 µM (inactive)
COc1cc2c(c(OC3OC(CO)C(O)C(O)C3O)c1)C(=O)CC(c1ccc(O)cc1)O2 (centres undefined) | > 100 µM | > 100 µM (inactive) | > 100 µM (inactive) | > 100 µM (inactive) | > 100 µM (inactive) | > 100 µM (inactive) | > 100 µM (inactive) | > 100 µM (inactive) | > 100 µM (inactive) | > 100 µM (inactive) | > 100 µM (inactive) | > 100 µM (inactive) | > 100 µM (inactive) | > 100 µM (inactive) | > 100 µM (inactive) | > 100 µM (inactive) | > 100 µM (inactive) | 
COC(=O)/C=C(/C)n1nc2ccccc2n1 | > 100 µM | > 100 µM (inactive) | > 100 µM (inactive) |  | > 100 µM (inactive) | > 100 µM (inactive) | > 100 µM (inactive) | > 100 µM (inactive) | > 100 µM (inactive) | > 100 µM (inactive) | > 100 µM (inactive) | > 100 µM (inactive) | > 100 µM (inactive) | > 100 µM (inactive) | > 100 µM (inactive) | > 100 µM (inactive) | > 100 µM (inactive) | > 100 µM (inactive)
